Measurements: the supplement of paper PMC10307832

Assays:
Experiment in all cases: relative viability (nuclei count vs DMSO), 5 days (fraction); higher = more cells survive
A-427 = test system: A-427
Procedure, shortened: (§1)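 Lung cancer cell lines in 1536-well plates were dosed by pin tool the day after seeding, either with one drug alone or with a fixed anchor-drug dose plus five library-drug doses (not always all listed) in √10 steps. After 5 days, cells were fixed and their nuclei stained in one step (final 0.05% Triton X-100, 1% formaldehyde, 1 ug/ml Hoechst), then counted on 4× images. Relative viability is the nuclei count in treated wells divided by that in vehicle wells. Values are medians of duplicate plates.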

HCC-15 = test system: HCC-15
Procedure, shortened: as §1

HCC-78 = test system: HCC-78
Procedure, shortened: as §1

HOP-62 = test system: HOP-62
Procedure, shortened: as §1

LC-2-ad = test system: LC-2-ad
Procedure, shortened: as §1

LOU-NH91 = test system: LOU-NH91
Procedure, shortened: as §1

LXF-289 = test system: LXF-289
Procedure, shortened: as §1

NCI-H1734 = test system: NCI-H1734
Procedure, shortened: as §1

NCI-H1755 = test system: NCI-H1755
Procedure, shortened: as §1

NCI-H1792 = test system: NCI-H1792
Procedure, shortened: as §1

NCI-H1915 = test system: NCI-H1915
Procedure, shortened: as §1

NCI-H1975 = test system: NCI-H1975
Procedure, shortened: as §1

NCI-H2126 = test system: NCI-H2126
Procedure, shortened: as §1

NCI-H2228 = test system: NCI-H2228
Procedure, shortened: as §1

NCI-H2342 = test system: NCI-H2342
Procedure, shortened: as §1

NCI-H2347 = test system: NCI-H2347
Procedure, shortened: as §1

NCI-H358 = test system: NCI-H358
Procedure, shortened: as §1

NCI-H460 = test system: NCI-H460
Procedure, shortened: as §1

NCI-H647 = test system: NCI-H647
Procedure, shortened: as §1

PC-3 [JPC-3] = test system: PC-3 [JPC-3]
Procedure, shortened: as §1

RERF-LC-KJ = test system: RERF-LC-KJ
Procedure, shortened: as §1

SK-LU-1 = test system: SK-LU-1
Procedure, shortened: as §1

SW 1573 = test system: SW 1573
Procedure, shortened: as §1

O=C(O)c1ccc(-c2c[nH]c3ncc(-c4ccccc4)cc23)cc1C1CCCC1 + Nc1nc2[nH]cc(CCc3ccc(C(=O)N[C@@H](CCC(=O)O)C(=O)O)cc3)c2c(=O)[nH]1 [Pemetrexed] (partner 0.2 µM)
relative viability (A-427; first compound 0.04 µM): 0.959
relative viability (A-427; first compound 0.1265 µM): 1.06
relative viability (A-427; first compound 0.4 µM): 0.943
relative viability (A-427; first compound 1.265 µM): 0.843
relative viability (HCC-15; first compound 0.04 µM): 0.206
relative viability (HCC-15; first compound 0.1265 µM): 0.227
relative viability (HCC-15; first compound 0.4 µM): 0.215
relative viability (HCC-15; first compound 1.265 µM): 0.188
relative viability (HCC-78; first compound 0.1265 µM): 0.919
relative viability (HCC-78; first compound 0.4 µM): 0.881
relative viability (HCC-78; first compound 1.265 µM): 0.962
relative viability (HOP-62; first compound 0.04 µM): 0.327
relative viability (HOP-62; first compound 0.1265 µM): 0.389
relative viability (HOP-62; first compound 0.4 µM): 0.307
relative viability (HOP-62; first compound 1.265 µM): 0.351
relative viability (LC-2-ad; first compound 0.04 µM): 0.302
relative viability (LC-2-ad; first compound 0.1265 µM): 0.272
relative viability (LC-2-ad; first compound 0.4 µM): 0.278
relative viability (LC-2-ad; first compound 1.265 µM): 0.261
relative viability (LOU-NH91; first compound 0.04 µM): 0.419
relative viability (LOU-NH91; first compound 0.1265 µM): 0.404
relative viability (LOU-NH91; first compound 0.4 µM): 0.414
relative viability (LOU-NH91; first compound 1.265 µM): 0.435
relative viability (LXF-289; first compound 0.04 µM): 0.912
relative viability (LXF-289; first compound 0.1265 µM): 0.905
relative viability (LXF-289; first compound 0.4 µM): 0.786
relative viability (LXF-289; first compound 1.265 µM): 0.627
relative viability (NCI-H1734; first compound 0.04 µM): 0.413
relative viability (NCI-H1734; first compound 0.1265 µM): 0.43
relative viability (NCI-H1734; first compound 0.4 µM): 0.428
relative viability (NCI-H1734; first compound 1.265 µM): 0.411
relative viability (NCI-H1755; first compound 0.04 µM): 0.412
relative viability (NCI-H1755; first compound 0.1265 µM): 0.449
relative viability (NCI-H1755; first compound 0.4 µM): 0.405
relative viability (NCI-H1755; first compound 1.265 µM): 0.436
relative viability (NCI-H1792; first compound 0.04 µM): 0.713
relative viability (NCI-H1792; first compound 0.1265 µM): 0.968
relative viability (NCI-H1792; first compound 0.4 µM): 1.05
relative viability (NCI-H1792; first compound 1.265 µM): 0.734
relative viability (NCI-H1915; first compound 0.04 µM): 0.493
relative viability (NCI-H1915; first compound 0.1265 µM): 0.454
relative viability (NCI-H1915; first compound 0.4 µM): 0.481
relative viability (NCI-H1915; first compound 1.265 µM): 0.448
relative viability (NCI-H1975; first compound 0.04 µM): 0.301
relative viability (NCI-H1975; first compound 0.1265 µM): 0.298
relative viability (NCI-H1975; first compound 0.4 µM): 0.284
relative viability (NCI-H1975; first compound 1.265 µM): 0.28
relative viability (NCI-H2126; first compound 0.04 µM): 0.741
relative viability (NCI-H2126; first compound 0.1265 µM): 0.66
relative viability (NCI-H2126; first compound 0.4 µM): 0.707
relative viability (NCI-H2126; first compound 1.265 µM): 0.666
relative viability (NCI-H2228; first compound 0.04 µM): 0.349
relative viability (NCI-H2228; first compound 0.1265 µM): 0.294
relative viability (NCI-H2228; first compound 0.4 µM): 0.348
relative viability (NCI-H2228; first compound 1.265 µM): 0.29
relative viability (NCI-H2342; first compound 0.04 µM): 0.804
relative viability (NCI-H2342; first compound 0.1265 µM): 0.816
relative viability (NCI-H2342; first compound 0.4 µM): 0.765
relative viability (NCI-H2342; first compound 1.265 µM): 0.74
relative viability (NCI-H2347; first compound 0.04 µM): 0.435
relative viability (NCI-H2347; first compound 0.1265 µM): 0.453
relative viability (NCI-H2347; first compound 0.4 µM): 0.454
relative viability (NCI-H2347; first compound 1.265 µM): 0.398
relative viability (NCI-H358; first compound 0.04 µM): 0.17
relative viability (NCI-H358; first compound 0.1265 µM): 0.186
relative viability (NCI-H358; first compound 0.4 µM): 0.181
relative viability (NCI-H358; first compound 1.265 µM): 0.148
relative viability (NCI-H460; first compound 0.04 µM): 0.0611
relative viability (NCI-H460; first compound 0.1265 µM): 0.0579
relative viability (NCI-H460; first compound 0.4 µM): 0.0617
relative viability (NCI-H460; first compound 1.265 µM): 0.0609
relative viability (NCI-H647; first compound 0.04 µM): 0.165
relative viability (NCI-H647; first compound 0.1265 µM): 0.171
relative viability (NCI-H647; first compound 0.4 µM): 0.182
relative viability (NCI-H647; first compound 1.265 µM): 0.148
relative viability (PC-3 [JPC-3]; first compound 0.04 µM): 1.05
relative viability (PC-3 [JPC-3]; first compound 0.1265 µM): 1.18
relative viability (PC-3 [JPC-3]; first compound 0.4 µM): 1.1
relative viability (PC-3 [JPC-3]; first compound 1.265 µM): 1.03
relative viability (RERF-LC-KJ; first compound 0.04 µM): 0.466
relative viability (RERF-LC-KJ; first compound 0.1265 µM): 0.469
relative viability (RERF-LC-KJ; first compound 0.4 µM): 0.481
relative viability (RERF-LC-KJ; first compound 1.265 µM): 0.481
relative viability (SK-LU-1; first compound 0.04 µM): 0.909
relative viability (SK-LU-1; first compound 0.1265 µM): 0.987
relative viability (SK-LU-1; first compound 0.4 µM): 0.882
relative viability (SK-LU-1; first compound 1.265 µM): 0.548
relative viability (SW 1573; first compound 0.04 µM): 0.808
relative viability (SW 1573; first compound 0.1265 µM): 0.762
relative viability (SW 1573; first compound 0.4 µM): 0.779
relative viability (SW 1573; first compound 1.265 µM): 0.63
